Calls of active or inactive are those of the source.
What was measured:
[1] = target: T1, Calpain-2 catalytic subunit (Sus scrofa, UniProt P43367); test: m-calpain protease blockers, concentration series – biochemical, fluorogenic peptide substrate, dose response (AID 1420); assay type: functional
T1 sequence (P43367 whole entry): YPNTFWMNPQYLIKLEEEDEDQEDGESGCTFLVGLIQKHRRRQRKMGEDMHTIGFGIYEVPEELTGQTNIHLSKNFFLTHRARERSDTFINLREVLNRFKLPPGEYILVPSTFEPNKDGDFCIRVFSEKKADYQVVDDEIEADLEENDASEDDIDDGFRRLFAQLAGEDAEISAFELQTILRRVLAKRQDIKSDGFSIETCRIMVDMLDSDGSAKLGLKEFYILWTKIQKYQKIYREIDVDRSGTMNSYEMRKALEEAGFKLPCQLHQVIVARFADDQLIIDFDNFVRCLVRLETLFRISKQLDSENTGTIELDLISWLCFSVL

[2] = target: Voltage-dependent T-type calcium channel subunit alpha-1H (Homo sapiens, UniProt O95180); assay type: functional;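 note: channel activity triggered by adding a high calcium stimulation buffer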
Leucine aminopeptidase = target: T2, Leucine aminopeptidase (Plasmodium falciparum 3D7, UniProt Q8IL11); test: P. falciparum M17LAP inhibitors, primary screen, biochemical, fluorogenic H-Leu-NHMec substrate, 1536-well (AID 1619); assay type: functional
T2 sequence (Q8IL11 whole entry): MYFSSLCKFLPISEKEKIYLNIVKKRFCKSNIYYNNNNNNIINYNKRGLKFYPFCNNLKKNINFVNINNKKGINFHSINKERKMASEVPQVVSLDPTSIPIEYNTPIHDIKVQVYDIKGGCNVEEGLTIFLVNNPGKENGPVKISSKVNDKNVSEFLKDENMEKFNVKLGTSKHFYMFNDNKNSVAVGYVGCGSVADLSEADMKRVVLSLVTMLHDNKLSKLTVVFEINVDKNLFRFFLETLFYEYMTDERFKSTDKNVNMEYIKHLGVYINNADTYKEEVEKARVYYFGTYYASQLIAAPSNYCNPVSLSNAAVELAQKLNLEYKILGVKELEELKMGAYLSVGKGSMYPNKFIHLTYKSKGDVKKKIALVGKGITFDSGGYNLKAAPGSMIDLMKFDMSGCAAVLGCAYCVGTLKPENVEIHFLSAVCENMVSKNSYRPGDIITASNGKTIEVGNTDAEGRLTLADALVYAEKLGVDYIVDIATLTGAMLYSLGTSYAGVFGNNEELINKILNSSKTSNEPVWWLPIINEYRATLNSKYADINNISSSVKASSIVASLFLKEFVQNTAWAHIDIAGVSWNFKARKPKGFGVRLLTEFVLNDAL

Large T antigen = Large T antigen (Simian virus 40, UniProt P03070); assay type: functional, Betapolyomavirus macacae;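 note: Confirmatory-stage PubChem screen for compounds that inhibit SV40 T antigen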
Vero = test: viability of Vero cells under compound – cytotoxicity control for flavivirus capping enzyme inhibitors (AID 588742); assay type: functional; settings: Chlorocebus sabaeus
[3] = target: FAD-linked sulfhydryl oxidase ALR (Homo sapiens, UniProt P55789); test: ALR-catalysed DTT oxidation blockers – biochemical, H2O2 detection, luminescence, cherry-pick, dose response (AID 493248)
Cytochrome P450 2C9 [4] = target: T3, Cytochrome P450 2C9 (Homo sapiens, UniProt P11712)
[5] = target: Induced myeloid leukemia cell differentiation protein Mcl-1 (Homo sapiens, UniProt Q07820); assay type: functional
[6] = HIV-1 Vif–A3G interaction blockers – biochemical, TR-FRET, GST-Vif 1-94, biotin-A3G peptide, dose response retest, primary screen (AID 1117319); assay type: functional;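 note: TR-FRET signal of purified GST-Vif binding a biotinylated A3G peptide; inhibitors lower the FRET signal by blocking Vif and A3G binding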
Aminopeptidase N = target: T4, Aminopeptidase N (Plasmodium falciparum FcB1/Columbia, UniProt O96935); test: malaria alanyl aminopeptidase activity blockers – biochemical, fluorogenic H-Leu-NHMec substrate, 1536-well (AID 1445); set-up: species or system Plasmodium falciparum 3D7, 3D7
T4 sequence (O96935 whole entry): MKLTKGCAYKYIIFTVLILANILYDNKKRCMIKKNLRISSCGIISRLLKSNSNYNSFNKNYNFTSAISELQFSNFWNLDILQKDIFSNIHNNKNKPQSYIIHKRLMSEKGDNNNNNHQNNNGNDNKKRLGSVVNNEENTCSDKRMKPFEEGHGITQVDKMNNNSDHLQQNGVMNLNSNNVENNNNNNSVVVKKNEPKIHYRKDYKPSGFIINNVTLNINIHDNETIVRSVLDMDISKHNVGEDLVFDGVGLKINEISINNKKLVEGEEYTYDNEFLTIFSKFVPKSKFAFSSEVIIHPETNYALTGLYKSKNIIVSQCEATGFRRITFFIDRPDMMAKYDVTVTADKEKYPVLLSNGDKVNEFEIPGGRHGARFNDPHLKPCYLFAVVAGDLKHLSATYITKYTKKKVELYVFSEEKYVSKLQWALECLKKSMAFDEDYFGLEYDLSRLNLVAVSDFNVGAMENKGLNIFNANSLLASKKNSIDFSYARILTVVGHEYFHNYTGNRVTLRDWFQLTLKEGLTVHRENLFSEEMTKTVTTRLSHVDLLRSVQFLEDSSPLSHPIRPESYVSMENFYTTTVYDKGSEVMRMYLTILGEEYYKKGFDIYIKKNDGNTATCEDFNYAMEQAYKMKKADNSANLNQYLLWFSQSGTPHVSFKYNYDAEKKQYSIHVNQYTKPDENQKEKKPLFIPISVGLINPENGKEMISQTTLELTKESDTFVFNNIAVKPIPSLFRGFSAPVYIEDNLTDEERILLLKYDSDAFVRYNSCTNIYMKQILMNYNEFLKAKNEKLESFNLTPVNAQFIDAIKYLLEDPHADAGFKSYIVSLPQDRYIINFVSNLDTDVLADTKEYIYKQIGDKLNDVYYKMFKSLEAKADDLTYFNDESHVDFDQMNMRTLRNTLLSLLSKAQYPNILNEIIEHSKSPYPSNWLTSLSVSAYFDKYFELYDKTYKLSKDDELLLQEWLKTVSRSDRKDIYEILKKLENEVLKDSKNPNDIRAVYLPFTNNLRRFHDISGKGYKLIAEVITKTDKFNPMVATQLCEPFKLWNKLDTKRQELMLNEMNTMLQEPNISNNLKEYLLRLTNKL

[7] = target: Eukaryotic translation initiation factor 4E (Mus musculus, UniProt P63073); test: blockers of eIF4G binding by eIF4E – biochemical, TR-FRET, dose response (AID 855); assay type: functional;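 note: potency for disrupting eIF4E binding to eIF4GI seen as loss of FRET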
Streptokinase A = target: T5, Streptokinase A (Streptococcus pyogenes serotype M1, UniProt P10520); test: viability-normalized secreted streptokinase activity reduction – plasminogen activation absorbance, OD405, dose response (AID 1914); assay type: functional, Streptococcus pyogenes M1 GAS;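 note: secreted streptokinase activity via plasminogen activation per viability signal from cell pellet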
T5 sequence (P10520 whole entry): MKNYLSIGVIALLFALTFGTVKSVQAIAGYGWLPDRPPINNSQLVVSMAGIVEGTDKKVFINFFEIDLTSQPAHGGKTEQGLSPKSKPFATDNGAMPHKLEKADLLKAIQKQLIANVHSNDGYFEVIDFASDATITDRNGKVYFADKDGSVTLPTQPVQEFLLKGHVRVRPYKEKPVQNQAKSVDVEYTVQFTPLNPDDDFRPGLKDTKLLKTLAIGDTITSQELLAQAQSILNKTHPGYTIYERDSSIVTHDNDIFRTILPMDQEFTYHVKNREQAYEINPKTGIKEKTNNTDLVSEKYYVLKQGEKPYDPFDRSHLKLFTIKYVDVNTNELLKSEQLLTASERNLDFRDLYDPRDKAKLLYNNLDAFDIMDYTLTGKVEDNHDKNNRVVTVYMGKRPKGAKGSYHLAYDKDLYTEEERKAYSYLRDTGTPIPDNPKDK

[8] = Vero E6 cell cytotoxicity, dose response, cytotoxicity control for non-replicating M. tuberculosis project, secondary assay (AID 492998); assay type: functional, VeroE6; settings: Vero C1008
cells = assay type: functional
[9] = system: Streptococcus sp. 'group A'; test: Streptococcus pyogenes SK(-)GAS viability under kanamycin – luminescence, BacTiterGlo, confirmation, counter-screen for streptokinase expression inhibitor project, dose response (AID 1900); assay type: functional, organism-based
Streptococcus = test: GAS UMAA2166 growth inhibition – luminescence, BacTiterGlo, counter-screen for streptokinase expression inhibitor project, dose response (AID 1915); assay type: functional, organism-based;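 note: potency for reduction of bacterial viability or growth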
Cytochrome P450 2C9 [10] = target: T3, Cytochrome P450 2C9; remark: listed apart in the source
[11] = target: T6, Rac GTPase-activating protein 1 (Homo sapiens, UniProt Q9H0H5); test: blockers of MgcRacGAP-driven Rac1 GTP hydrolysis – biochemical, ADP Hunter fluorescence, primary and confirmatory, confirmation (AID 624330); assay type: functional
T6 sequence (Q9H0H5 whole entry): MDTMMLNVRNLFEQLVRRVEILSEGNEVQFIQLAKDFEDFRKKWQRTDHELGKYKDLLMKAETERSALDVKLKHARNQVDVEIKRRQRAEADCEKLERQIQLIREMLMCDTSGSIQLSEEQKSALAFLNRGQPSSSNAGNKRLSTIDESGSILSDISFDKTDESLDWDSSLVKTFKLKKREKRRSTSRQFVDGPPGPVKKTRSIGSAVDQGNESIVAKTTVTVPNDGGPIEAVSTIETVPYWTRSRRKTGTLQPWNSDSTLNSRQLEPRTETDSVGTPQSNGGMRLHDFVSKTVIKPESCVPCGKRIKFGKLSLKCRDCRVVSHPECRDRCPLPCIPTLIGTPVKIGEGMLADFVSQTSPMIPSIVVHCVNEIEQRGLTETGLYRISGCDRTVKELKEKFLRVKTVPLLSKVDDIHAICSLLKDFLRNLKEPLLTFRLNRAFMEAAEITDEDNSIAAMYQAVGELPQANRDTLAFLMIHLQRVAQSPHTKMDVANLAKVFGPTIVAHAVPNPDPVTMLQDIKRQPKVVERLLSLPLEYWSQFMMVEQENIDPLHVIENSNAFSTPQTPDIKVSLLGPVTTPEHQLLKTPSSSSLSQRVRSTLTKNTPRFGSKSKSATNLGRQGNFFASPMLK

[12] = THP-1 cell cytotoxicity, dose response, cytotoxicity control for non-replicating M. tuberculosis project (AID 489025); assay type: functional
[13] = target: T7, Heat shock factor protein 1 (Mus musculus, UniProt P38532); test: enhancement of HSF1-driven luciferase signal – cell-based, NIH3T3, luminescence, dose retest, confirmation (AID 435004); assay type: functional;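 note: stress induced by proteasome inhibitor MG132 added 30 min after compound; luciferase reporter driven by HSF1 response element in NIH3T3 cells; actives raise luminescence as potentiators of the MG132 stress response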
T7 sequence (P38532 whole entry): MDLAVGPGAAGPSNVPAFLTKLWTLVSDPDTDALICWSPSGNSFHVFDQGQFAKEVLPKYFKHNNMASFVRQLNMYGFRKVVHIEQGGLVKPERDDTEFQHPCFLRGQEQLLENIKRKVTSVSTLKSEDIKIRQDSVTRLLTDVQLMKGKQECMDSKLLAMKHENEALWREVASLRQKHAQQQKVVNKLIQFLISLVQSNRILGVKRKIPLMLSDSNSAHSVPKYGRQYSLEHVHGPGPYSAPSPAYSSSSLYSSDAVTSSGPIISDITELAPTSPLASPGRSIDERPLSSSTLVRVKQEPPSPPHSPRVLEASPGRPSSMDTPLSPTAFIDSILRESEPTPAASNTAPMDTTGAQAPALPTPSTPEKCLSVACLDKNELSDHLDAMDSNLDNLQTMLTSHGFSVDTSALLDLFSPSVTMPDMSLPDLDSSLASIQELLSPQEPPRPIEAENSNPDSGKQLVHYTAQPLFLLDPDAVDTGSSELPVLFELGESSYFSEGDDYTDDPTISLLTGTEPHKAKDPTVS

Sequence of Eukaryotic translation initiation factor 4E (P63073 whole entry): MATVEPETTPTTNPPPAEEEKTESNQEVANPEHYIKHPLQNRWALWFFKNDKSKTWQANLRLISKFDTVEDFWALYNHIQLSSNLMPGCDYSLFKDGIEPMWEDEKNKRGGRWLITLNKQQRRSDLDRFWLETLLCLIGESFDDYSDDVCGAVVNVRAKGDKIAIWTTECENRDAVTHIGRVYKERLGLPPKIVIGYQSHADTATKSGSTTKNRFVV
Sequence of Large T antigen (P03070 whole entry): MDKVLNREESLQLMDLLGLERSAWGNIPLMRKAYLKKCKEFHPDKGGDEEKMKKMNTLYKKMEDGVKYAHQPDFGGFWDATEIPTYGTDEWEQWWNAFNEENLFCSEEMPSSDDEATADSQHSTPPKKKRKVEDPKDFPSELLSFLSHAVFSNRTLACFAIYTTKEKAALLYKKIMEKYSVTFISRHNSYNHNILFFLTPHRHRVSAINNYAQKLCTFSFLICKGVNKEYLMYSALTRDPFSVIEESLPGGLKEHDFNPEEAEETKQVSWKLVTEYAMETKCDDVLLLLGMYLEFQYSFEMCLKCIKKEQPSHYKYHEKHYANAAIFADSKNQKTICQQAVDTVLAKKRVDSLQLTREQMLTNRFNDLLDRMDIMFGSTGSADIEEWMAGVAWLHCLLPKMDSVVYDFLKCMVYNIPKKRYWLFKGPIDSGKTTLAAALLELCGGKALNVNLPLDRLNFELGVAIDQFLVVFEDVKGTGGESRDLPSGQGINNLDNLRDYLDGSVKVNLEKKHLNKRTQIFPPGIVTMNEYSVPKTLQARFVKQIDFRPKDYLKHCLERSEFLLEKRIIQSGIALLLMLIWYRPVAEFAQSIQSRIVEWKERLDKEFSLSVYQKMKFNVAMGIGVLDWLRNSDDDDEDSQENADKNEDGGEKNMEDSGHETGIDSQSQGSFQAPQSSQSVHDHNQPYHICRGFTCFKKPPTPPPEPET
Sequence of Induced myeloid leukemia cell differentiation protein Mcl-1 (Q07820 whole entry): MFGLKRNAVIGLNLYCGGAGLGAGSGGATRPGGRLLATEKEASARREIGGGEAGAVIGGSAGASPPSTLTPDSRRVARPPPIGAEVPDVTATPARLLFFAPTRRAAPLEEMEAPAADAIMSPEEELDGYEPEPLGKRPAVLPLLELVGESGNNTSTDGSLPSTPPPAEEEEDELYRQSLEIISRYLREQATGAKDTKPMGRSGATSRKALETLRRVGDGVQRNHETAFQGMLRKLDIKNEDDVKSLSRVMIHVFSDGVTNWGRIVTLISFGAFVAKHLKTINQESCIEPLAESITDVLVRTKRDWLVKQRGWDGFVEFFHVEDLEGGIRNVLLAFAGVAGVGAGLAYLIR
T3 sequence (P11712 whole entry): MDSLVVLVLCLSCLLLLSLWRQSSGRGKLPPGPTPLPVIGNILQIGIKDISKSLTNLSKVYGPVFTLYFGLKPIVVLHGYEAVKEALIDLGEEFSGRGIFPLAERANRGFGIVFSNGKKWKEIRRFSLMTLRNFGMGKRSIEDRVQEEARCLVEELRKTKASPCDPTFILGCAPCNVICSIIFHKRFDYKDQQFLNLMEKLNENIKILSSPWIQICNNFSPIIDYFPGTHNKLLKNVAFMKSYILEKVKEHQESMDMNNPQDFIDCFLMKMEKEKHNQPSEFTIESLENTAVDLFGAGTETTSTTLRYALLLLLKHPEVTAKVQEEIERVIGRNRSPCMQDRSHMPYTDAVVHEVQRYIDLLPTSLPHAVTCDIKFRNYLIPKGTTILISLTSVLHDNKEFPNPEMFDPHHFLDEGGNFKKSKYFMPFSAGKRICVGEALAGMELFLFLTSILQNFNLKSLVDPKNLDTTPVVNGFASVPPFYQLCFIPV
Sequence of FAD-linked sulfhydryl oxidase ALR (P55789 whole entry): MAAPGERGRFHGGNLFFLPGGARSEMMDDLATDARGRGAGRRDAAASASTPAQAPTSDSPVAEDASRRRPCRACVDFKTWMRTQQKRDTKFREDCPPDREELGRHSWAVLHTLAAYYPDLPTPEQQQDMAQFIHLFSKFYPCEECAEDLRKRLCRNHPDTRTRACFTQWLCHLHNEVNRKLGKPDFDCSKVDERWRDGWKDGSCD
Sequence of Voltage-dependent T-type calcium channel subunit alpha-1H (O95180 whole entry): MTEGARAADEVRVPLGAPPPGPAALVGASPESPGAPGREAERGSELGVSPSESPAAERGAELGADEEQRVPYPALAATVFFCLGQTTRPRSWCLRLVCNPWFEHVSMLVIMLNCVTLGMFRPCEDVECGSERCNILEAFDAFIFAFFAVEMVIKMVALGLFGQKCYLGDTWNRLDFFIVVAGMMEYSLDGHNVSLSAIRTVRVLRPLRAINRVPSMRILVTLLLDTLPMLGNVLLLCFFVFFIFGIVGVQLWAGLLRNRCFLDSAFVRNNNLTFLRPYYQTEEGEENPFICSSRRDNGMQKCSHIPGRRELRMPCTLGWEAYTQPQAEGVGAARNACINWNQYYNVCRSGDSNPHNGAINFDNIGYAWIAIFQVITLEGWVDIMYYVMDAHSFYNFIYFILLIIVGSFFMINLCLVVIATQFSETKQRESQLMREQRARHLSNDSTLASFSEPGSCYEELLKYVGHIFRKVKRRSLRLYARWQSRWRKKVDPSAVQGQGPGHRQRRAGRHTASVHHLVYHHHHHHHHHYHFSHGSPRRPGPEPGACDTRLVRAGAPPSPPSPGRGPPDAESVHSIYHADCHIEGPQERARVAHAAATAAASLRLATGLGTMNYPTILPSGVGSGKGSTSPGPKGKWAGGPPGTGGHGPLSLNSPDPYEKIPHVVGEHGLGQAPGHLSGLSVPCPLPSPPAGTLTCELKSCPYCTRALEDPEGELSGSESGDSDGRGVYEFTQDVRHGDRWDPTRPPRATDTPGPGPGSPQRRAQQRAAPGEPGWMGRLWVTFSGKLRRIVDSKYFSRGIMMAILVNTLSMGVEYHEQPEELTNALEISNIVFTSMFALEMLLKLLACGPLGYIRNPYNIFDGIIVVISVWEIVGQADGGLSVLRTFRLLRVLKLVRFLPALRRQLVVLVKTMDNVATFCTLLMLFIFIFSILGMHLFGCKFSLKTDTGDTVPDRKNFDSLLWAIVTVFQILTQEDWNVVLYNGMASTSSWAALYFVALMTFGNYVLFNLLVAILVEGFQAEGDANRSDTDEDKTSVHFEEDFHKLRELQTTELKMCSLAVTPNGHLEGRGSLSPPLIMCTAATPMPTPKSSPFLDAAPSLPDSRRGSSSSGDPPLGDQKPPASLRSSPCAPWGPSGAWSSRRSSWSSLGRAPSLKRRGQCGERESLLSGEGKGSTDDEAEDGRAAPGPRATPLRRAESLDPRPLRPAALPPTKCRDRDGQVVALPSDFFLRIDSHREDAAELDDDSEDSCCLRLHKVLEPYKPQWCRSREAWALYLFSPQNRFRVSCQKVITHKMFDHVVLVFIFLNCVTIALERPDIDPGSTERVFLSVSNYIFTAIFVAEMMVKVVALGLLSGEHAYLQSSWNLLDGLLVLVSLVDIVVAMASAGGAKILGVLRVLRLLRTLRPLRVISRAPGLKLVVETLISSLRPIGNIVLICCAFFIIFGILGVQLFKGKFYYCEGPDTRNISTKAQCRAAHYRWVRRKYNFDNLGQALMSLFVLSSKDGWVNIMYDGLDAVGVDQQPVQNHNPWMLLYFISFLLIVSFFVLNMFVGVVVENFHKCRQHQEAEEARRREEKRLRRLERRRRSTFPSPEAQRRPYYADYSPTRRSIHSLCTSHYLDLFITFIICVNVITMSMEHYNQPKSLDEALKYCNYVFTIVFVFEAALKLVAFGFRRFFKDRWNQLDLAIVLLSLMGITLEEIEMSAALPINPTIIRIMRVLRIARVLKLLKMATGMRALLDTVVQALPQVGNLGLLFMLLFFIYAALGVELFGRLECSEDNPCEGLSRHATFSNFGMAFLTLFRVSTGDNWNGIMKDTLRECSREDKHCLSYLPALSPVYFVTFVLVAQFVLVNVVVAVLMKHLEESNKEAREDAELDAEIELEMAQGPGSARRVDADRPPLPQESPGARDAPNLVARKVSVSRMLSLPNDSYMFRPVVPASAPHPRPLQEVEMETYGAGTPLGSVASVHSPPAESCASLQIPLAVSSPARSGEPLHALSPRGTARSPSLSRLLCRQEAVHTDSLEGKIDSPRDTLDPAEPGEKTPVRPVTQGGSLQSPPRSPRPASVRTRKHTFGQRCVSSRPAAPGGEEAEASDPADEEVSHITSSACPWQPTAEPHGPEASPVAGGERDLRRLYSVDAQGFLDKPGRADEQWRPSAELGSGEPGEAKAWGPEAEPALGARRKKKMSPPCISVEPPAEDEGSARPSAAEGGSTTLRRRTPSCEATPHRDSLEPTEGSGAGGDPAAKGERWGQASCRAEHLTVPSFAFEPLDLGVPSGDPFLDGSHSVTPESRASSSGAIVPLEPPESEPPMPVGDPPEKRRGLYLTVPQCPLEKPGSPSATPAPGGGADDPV

Structure (SMILES): Cc1ccc2oc(=O)n(Cc3ccccc3OC(C)C)c2c1
- IC50 [1]: > 50 µM (not active)
- EC50 [2]: 8.57 µM (active)

Structure (SMILES): O=C(Nc1nc(=O)[nH]s1)c1ccccc1
- IC50 [1]: > 50 µM (not active)
- IC50 (Leucine aminopeptidase): 18.1 µM (active)

Structure (SMILES): CCN(CC)c1ccc(NC(=O)c2cccc(F)c2)c(C)c1
- IC50 (Large T antigen): 28.3 µM (active)
- CC50 (Vero): > 40 µM (active)
- AC50 [3]: 1.19 µM (active)
- AC50 (Cytochrome P450 2C9 [4]): inconclusive

Structure (SMILES): O=C1CSC(=S)N1/N=C/c1ccc(O)c([N+](=O)[O-])c1
- IC50 (Large T antigen): 26.8 µM (active)
- IC50 [5]: 6.99 µM (active)

Structure (SMILES): O=C(CN1CCC(NC(=O)c2cccc(F)c2)CC1)NCc1ccccc1F
- IC50 [6]: > 100 µM (active)
- IC50 (Aminopeptidase N): 23.2 µM (active)

Structure (SMILES): O=C1NC(=S)N(Cc2ccco2)C(=O)/C1=C\c1cccs1
- IC50 [7]: 9.49 µM (active)

Structure (SMILES): CCOC(=O)CSc1nc(C(C)C)nc2sc(C)c(C)c12
- IC50 [1]: 2.34 µM (not active)

Structure (SMILES): N#Cc1ccc(-c2csc(NC3=NCCCCC3)n2)cc1
- IC50 [7]: > 64 µM (inactive)

Structure (SMILES): O=C(Nc1nccs1)c1sc2ccccc2c1Cl
- EC50 (Streptokinase A): > 150 µM (not active)
- CC50 [8]: > 20 µM (active)
- IC50 (cells): 20.5 µM (active)
- EC50 [9]: 18.4 µM (active)
- EC50 (Streptococcus): > 150 µM (not active)

Structure (SMILES): Cc1cccc(-c2nnc(SCC3CNC(=O)O3)n2-c2ccc(Cl)cc2)c1 (stereo not drawn)
- IC50 [7]: > 64 µM (inactive)

Structure (SMILES): O=C(N/N=C/c1cc(Br)cs1)c1c[nH]c2ccccc12
- IC50 [1]: 4.39 µM (not active)

Structure (SMILES): Cc1ccc[n+](CC(=O)c2cc3ccccc3oc2=O)c1
- IC50 [6]: > 100 µM (active)
- AC50 (Cytochrome P450 2C9 [10]): 1.78 µM (inconclusive)

Structure (SMILES): COc1cc(/C=N\Nc2cc(=O)n(C)c(=O)n2C)ccc1O
- IC50 (Large T antigen): 23.7 µM (active)
- IC50 [11]: 33.7 µM (active)

Structure (SMILES): Cc1ccc(SCC(=O)c2c(C)nc3cc(C)ccn23)cc1
- IC50 [1]: 6.79 µM (not active)

Structure (SMILES): O=[N+]([O-])C(=c1ccc2c(c1)N1C3=C(CCCC3)CC3CCCCC31N=2)[N+](=O)[O-] (stereo not drawn)
- IC50 [5]: 1.95 µM (active)

Structure (SMILES): O=C(c1ccc2ccccc2c1)N1CCN(c2ccc(O)cc2)CC1
- IC50 (Large T antigen): 9.84 µM (active)

Structure (SMILES): CCCCN1C(=O)/C(=C(/C#N)C(N)=O)c2ccccc21
- IC50 (Large T antigen): 60.5 µM (active)

Structure (SMILES): CC1(C)CC(=O)C2=C(C1)OC(N)=C(C#N)C2C#Cc1ccccc1 (stereo not drawn)
- CC50 [12]: 38.4 µM (active)
- EC50 [13]: 38.3 µM (active)

Structure (SMILES): COc1cccc(CN2CCNC(=O)C2CC(=O)NCCn2nc(C)cc2C)c1OC (stereo not drawn)
- IC50 [6]: > 100 µM (active)

— ChEMBL document CHEMBL1201862, “PubChem BioAssay data set” (2004)
